Assay results taken from patent US11000033B2, “Ketone or oxime compound, and herbicide” (NISSAN CHEMICAL CORPORATION, priority 2014, dated 2021).

Assays:
Type in all cases: in vivo
rice = assay: Test Example 4: effect on crop by soil treatment (symbol b); conditions: for b: directly sowed rice plant, effect grade on crop: 320 g/ha
How it was run: (§1)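 Seeds were sown in spots on sterilized diluvial soil in a plastic box and covered with about 1.5 cm of soil. Plants were then grown in a greenhouse at 25° C. to 30° C.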

Avena fatua = assay: Test Example 5: herbicidal effect by foliage application, plastic box (symbol I); conditions: 3 weeks after application
How it was run: (§2)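 Effect is rated 3 weeks after a foliar spray of water-diluted emulsion concentrate at a predetermined herbicide amount. Plants had grown 14 days in a 25° C. to 30° C. greenhouse from seed in sterilized diluvial soil.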

transplanted rice plant = assay: Test Example 1: effect on crop, application before weed generation in submerged conditions (symbol a)
How it was run: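 Alluvial soil pots flooded to 4 cm water, sown with Echinochloa oryzacola, Scirpus juncoides and Monochoria vaginalis, then transplanted with 2.5 leaf stage rice seedlings; pre-emergence application. Greenhouse 25° C. to 30° C.; scored 0–5 by herbicidal ratio 3 weeks after application.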

Stellaria media [1] = assay: Test Example 5: herbicidal effect by foliage application, plastic box (symbol P); conditions: 3 weeks after application
How it was run: as §2

Abutilon theophrasti = assay: Test Example 5: herbicidal effect by foliage application, plastic box (symbol M); conditions: 3 weeks after application
How it was run: as §2

Galium spurium = assay: Test Example 4: herbicidal effect by soil treatment (symbol Q)
How it was run: (§3)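 Seeds were sown in sterilized diluvial soil, covered with about 1.5 cm of soil, and the soil surface was sprayed with a water-diluted emulsion of the compound at a predetermined rate. Plants grew in a greenhouse at 25° C. to 30° C.; effects were scored visually 3 weeks after application.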

Amaranthus retroflexus = assay: Test Example 4: herbicidal effect by soil treatment (symbol N)
How it was run: as §3

rice plant = assay: Test Example 5: effect on crop by foliage application, plastic box (symbol b); conditions: 3 weeks after application
How it was run: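 Greenhouse culture at 25° C. to 30° C. followed spot-like sowing into sterilized diluvial soil, with seed covered by roughly 1.5 cm of soil.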

Setaria viridis = assay: Test Example 5: herbicidal effect by foliage application, plastic box (symbol G); conditions: 3 weeks after application
How it was run: as §2

Monochoria vaginalis = assay: Test Example 2: herbicidal activity, application during weed generation in submerged conditions (symbol C); conditions: Table 23, grade 0-5 by criteria of Test Example 1
How it was run: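 Read-out: herbicidal effect on each species rated on a visual scale 3 weeks after treatment. Plants were raised together from seed in flooded alluvial soil (4 cm water) at 25° C. to 30° C. and treated at one to two leaves by water-surface application of diluted emulsion.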

beet = assay: Test Example 4: effect on crop by soil treatment (symbol f); conditions: for f: beet, effect grade on crop: 320 g/ha
How it was run: as §1

[2] = system: Echinochloa crus-galli var. crus-galli; assay: Test Example 4: herbicidal effect by soil treatment (symbol H)
How it was run: as §3

Digitaria ciliaris = assay: Test Example 5: herbicidal effect by foliage application, plastic box (symbol F); conditions: 3 weeks after application
How it was run: as §2

Stellaria media [3] = assay: Test Example 4: herbicidal effect by soil treatment (symbol P)
How it was run: as §3

[4] = application herbicide amount 269 g/ha
[5] = application herbicide amount 320 g/ha

| Structure (SMILES) | b: directly sowed rice plant, effect grade on crop (rice) | I: Avena fatua, herbicidal effect (criteria 0-5) (Avena fatua; 320 g/ha) | Effect grade on crop, a: transplanted rice plant (transplanted rice plant; [5]) | P: Stellaria media, herbicidal effect (criteria 0-5) (Stellaria media [1]; 320 g/ha) | M: Abutilon theophrasti, herbicidal effect (criteria 0-5) (Abutilon theophrasti; 320 g/ha) | Q: Galium spurium, herbicidal effect grade (Galium spurium; 320 g/ha) | N: Amaranthus retroflexus, herbicidal effect grade (Amaranthus retroflexus; 320 g/ha) | b: directly sowed rice plant, effect on crop (criteria 0-5) (rice plant; 320 g/ha) | G: Setaria viridis, herbicidal effect (criteria 0-5) (Setaria viridis; 320 g/ha) | Herbicidal effect grade, C: Monochoria vaginalis (Monochoria vaginalis; [5]) | f: beet, effect grade on crop (beet) | H: Echinochloa crus-galli var. crus-galli, herbicidal effect grade ([2]; 320 g/ha) | F: Digitaria ciliaris, herbicidal effect (criteria 0-5) (Digitaria ciliaris; 320 g/ha) | P: Stellaria media, herbicidal effect grade (Stellaria media [3]; 320 g/ha) | further results |
| --- | --- | --- | --- | --- | --- | --- | --- | --- | --- | --- | --- | --- | --- | --- | --- |
| CC(=O)C(C)C1CC(O)=C(c2c(C)cc(C)cc2C)C1=O (stereo not shown) [2-005] |  |  |  |  |  |  |  |  |  |  |  |  |  |  | b: directly sowed rice plant, effect on crop grade (rice; [4]): 5 (Herbicidal ratio of 90% or more (almost completely withered)); I: Avena fatua, herbicidal effect grade (Avena fatua; 269 g/ha): 3 (Herbicidal ratio of 40% or higher and lower than 70%); Effect grade on crop, a: transplanted rice plant (transplanted rice plant; [4]): 4 (Herbicidal ratio of 70% or higher and lower than 90%); P: Stellaria media, herbicidal effect grade (Stellaria media [1]; 269 g/ha): 0 (Herbicidal ratio of 5% or lower (almost no effect)); M: Abutilon theophrasti, herbicidal effect grade (Abutilon theophrasti; 269 g/ha): 0 (Herbicidal ratio of 5% or lower (almost no effect)); Q: Galium spurium, herbicidal effect grade (Galium spurium; [4]): 0 (Herbicidal ratio of 5% or lower (almost no effect)); N: Amaranthus retroflexus, herbicidal effect grade (Amaranthus retroflexus; [4]): 0 (Herbicidal ratio of 5% or lower (almost no effect)); b: directly sowed rice plant, effect on crop grade (rice plant; 269 g/ha): 5 (Herbicidal ratio of 90% or more (almost completely withered)); G: Setaria viridis, herbicidal effect grade (Setaria viridis; 269 g/ha): 4 (Herbicidal ratio of 70% or higher and lower than 90%); Herbicidal effect grade, C: Monochoria vaginalis (Monochoria vaginalis; [4]): 0 (Herbicidal ratio of 5% or lower (almost no effect)); f: beet, effect on crop grade (beet; [4]): 0 (Herbicidal ratio of 5% or lower (almost no effect)); H: Echinochloa crus-galli var. crus-galli, herbicidal effect grade [2, 4]: 5 (Herbicidal ratio of 90% or more (almost completely withered)); F: Digitaria ciliaris, herbicidal effect grade (Digitaria ciliaris; 269 g/ha): 3 (Herbicidal ratio of 40% or higher and lower than 70%); P: Stellaria media, herbicidal effect grade (Stellaria media [3]; [4]): 0 (Herbicidal ratio of 5% or lower (almost no effect)) |
| CC(CC1CC(O)=C(c2c(C)cc(C)cc2C)C1=O)=NOCC(C)Cl (stereo not shown) [1-121] | 5 (Herbicidal ratio of 90% or more (almost completely withered)) | 5 (Herbicidal ratio of 90% or more (almost completely withered)) | 5 (Herbicidal ratio of 90% or more (almost completely withered)) | 2 (Herbicidal ratio of 20% or higher and lower than 40%) | 3 (Herbicidal ratio of 40% or higher and lower than 70%) | 0 (Herbicidal ratio of 5% or lower (almost no effect)) | 0 (Herbicidal ratio of 5% or lower (almost no effect)) | 5 (Herbicidal ratio of 90% or more (almost completely withered)) | 5 (Herbicidal ratio of 90% or more (almost completely withered)) | 1 (Herbicidal ratio of 5% or higher and lower than 20%) | 0 (Herbicidal ratio of 5% or lower (almost no effect)) | 5 (Herbicidal ratio of 90% or more (almost completely withered)) | 5 (Herbicidal ratio of 90% or more (almost completely withered)) | 0 (Herbicidal ratio of 5% or lower (almost no effect)) |  |
| CON=C(C)CC1CC(OC(=O)CN(C)C(=O)c2ccccc2)=C(c2c(C)cc(C)cc2C)C1=O (stereo not shown) [1-139] | 5 (Herbicidal ratio of 90% or more (almost completely withered)) | 5 (Herbicidal ratio of 90% or more (almost completely withered)) | 5 (Herbicidal ratio of 90% or more (almost completely withered)) | 3 (Herbicidal ratio of 40% or higher and lower than 70%) | 2 (Herbicidal ratio of 20% or higher and lower than 40%) | 0 (Herbicidal ratio of 5% or lower (almost no effect)) | 3 (Herbicidal ratio of 40% or higher and lower than 70%) | 5 (Herbicidal ratio of 90% or more (almost completely withered)) | 5 (Herbicidal ratio of 90% or more (almost completely withered)) | 1 (Herbicidal ratio of 5% or higher and lower than 20%) | 0 (Herbicidal ratio of 5% or lower (almost no effect)) | 5 (Herbicidal ratio of 90% or more (almost completely withered)) | 5 (Herbicidal ratio of 90% or more (almost completely withered)) | 0 (Herbicidal ratio of 5% or lower (almost no effect)) |  |
| CON=C(C)CC1CC(OC(C)=O)=C(c2c(C)cc(C)cc2C)C1=O (stereo not shown) [1-005] |  |  | 5 (Herbicidal ratio of 90% or more (almost completely withered)) |  |  |  |  |  |  | 4 (Herbicidal ratio of 70% or higher and lower than 90%) |  |  |  |  | b (directly sowed rice plant) effect on crop grade (rice; [5]): 5 (Herbicidal ratio of 90% or more (almost completely withered)); I: Avena fatua, herbicidal effect grade (Avena fatua; 320 g/ha): 5 (Herbicidal ratio of 90% or more (almost completely withered)); P: Stellaria media, herbicidal effect grade (Stellaria media [1]; 320 g/ha): 4 (Herbicidal ratio of 70% or higher and lower than 90%); M: Abutilon theophrasti, herbicidal effect grade (Abutilon theophrasti; 320 g/ha): 4 (Herbicidal ratio of 70% or higher and lower than 90%); Q (Galium spurium) herbicidal effect grade (Galium spurium; [5]): 0 (Herbicidal ratio of 5% or lower (almost no effect)); N (Amaranthus retroflexus) herbicidal effect grade (Amaranthus retroflexus; [5]): 5 (Herbicidal ratio of 90% or more (almost completely withered)); b: directly sowed rice plant, effect on crop grade (rice plant; 320 g/ha): 5 (Herbicidal ratio of 90% or more (almost completely withered)); G: Setaria viridis, herbicidal effect grade (Setaria viridis; 320 g/ha): 5 (Herbicidal ratio of 90% or more (almost completely withered)); f (beet) effect on crop grade (beet; [5]): 4 (Herbicidal ratio of 70% or higher and lower than 90%); H (Echinochloa crus-galli var. crus-galli) herbicidal effect grade [2, 5]: 5 (Herbicidal ratio of 90% or more (almost completely withered)); F: Digitaria ciliaris, herbicidal effect grade (Digitaria ciliaris; 320 g/ha): 5 (Herbicidal ratio of 90% or more (almost completely withered)); P (Stellaria media) herbicidal effect grade (Stellaria media [3]; [5]): 0 (Herbicidal ratio of 5% or lower (almost no effect)) |
| CON=C(C)CC1CC(OC(=O)N2CCOCC2)=C(c2c(C)cc(C)cc2C)C1=O (stereo not shown) [1-104] | 5 (Herbicidal ratio of 90% or more (almost completely withered)) | 5 (Herbicidal ratio of 90% or more (almost completely withered)) | 3 (Herbicidal ratio of 40% or higher and lower than 70%) | 1 (Herbicidal ratio of 5% or higher and lower than 20%) | 3 (Herbicidal ratio of 40% or higher and lower than 70%) | 0 (Herbicidal ratio of 5% or lower (almost no effect)) | 0 (Herbicidal ratio of 5% or lower (almost no effect)) | 5 (Herbicidal ratio of 90% or more (almost completely withered)) | 5 (Herbicidal ratio of 90% or more (almost completely withered)) | 0 (Herbicidal ratio of 5% or lower (almost no effect)) | 0 (Herbicidal ratio of 5% or lower (almost no effect)) | 5 (Herbicidal ratio of 90% or more (almost completely withered)) | 5 (Herbicidal ratio of 90% or more (almost completely withered)) | 0 (Herbicidal ratio of 5% or lower (almost no effect)) |  |
